The nature of data set [1]: Metabolic stability, incubation with human liver S-9 fractions. In kind it is in vitro ADME. Particulars: for Liver S9 Stability Factor: % parent remaining after 30 min at 37 C with human liver S9, divided by average % ranolazine remaining (57%). The procedure:
Metabolic Stability: As a measure of metabolic stability the compounds of this invention were incubated with human liver S-9 microsomal fractions. After, 30 minutes at 37 C, the amount of parent drug remaining was determined using LC-mass spec. The response factors for each compound was determined by establishing a standard curve and using an internal standard during the analysis of the samples. An average of five experiments for percentage of ranolazine remaining at the 30 minute time point is 57%. The compounds of this invention were assayed as described in the protocol below and the percentage of parent remaining was divided by the average % of ranolazine remaining (57%) affording a metabolic stability factor. A compound with a stability number greater than 1.2 has a better stability than ranolazine in the liver S-9 assay. A compound with a stability number between 1.2 and 0.8 has an equivalent stability in the liver S-9 assay.
The purpose of this experiment is to compare the percentages remaining for compounds of this invention with the percentage remaining for ranolazine after 30 minutes of incubation with human liver S9 fractions.
The following reagents were used; Potassium phosphate, 0.5M pH 7.4 (incubation buffer), kept at room temperature; 0.05M MgCl^2 kept at 4° C.; β-Nicotinamide adenine dinucleotide phosphate, tetrasodium salt, reduced form (NADPH), 0.02M solution in water (˜16.6 mg/mL) from Sigma Lot #79H7044 prepared on day of use. 1 mM of ranolazine or Compounds 43, 45, 47, 52, 70, 74, 76, 78, and 80 in ACN further diluted to obtain 100 μM in 10% ACN; Human S9 stock: 20 mg/mL from Gentest.
Incubation mixtures were prepared as follows:
Combine all components with incubation buffer and re-pipette 200 μL/tube+25 μL of the compound being tested along with 25 μL of S-9.
After 5 min of pre-incubation at 37° C., at 0 and 30 min after starting the reaction, a 50 μl aliquot of the incubation mixture was removed and added to 100 μL of 9:1 acetonitrile:methanol containing the internal standard.
The mixture was centrifuged and a 100 μL aliquot of the supernatant was diluted in 1 mL of solvent C (0.1% Formic Acid in water). Then samples were analyzed for change between the ratio of compound to internal standard at time zero and 30 minutes by LC/MS (injected 10 μL).
Samples were analyzed for the starting compounds and potential metabolite/s by LC/MS using an internal standard and an ODS-C18 column with a flow rate of 0.25 ml/min.

The test system of data set [2] is mitochondrial fatty acid oxidation using palmitoyl CoA as substrate. Nature of the data set: Palmitoyl CoA oxidation in isolated rat heart mitochondria. Particulars: for Inhibition of mitochondrial fatty acid oxidation using palmitoyl CoA as substrate - % of Control, 100 μm (%): 100 μm compound, 15 min at 30° C. It is filed as biochemical. The procedure: Rat heart mitochondria were isolated by the method of Nedergard and Cannon (Methods in Enzymol. 55, 3, 1979). Palmitoyl CoA oxidation—The Palmityl CoA oxidation was carried out in a total volume of 100 micro liters containing the following agents: 110 mM KCl, 33 mM Tris buffer at pH 8, 2 mM KPi, 2 mM MgCl2, 0.1 mM EDTA, 14.7 microM defatted BSA, 0.5 mM malic acid, 13 mM carnitine, 1 mM ADP, 52 micrograms of mitochondrial protein, and 16 microM 1-C14 palmitoyl CoA (Sp. Activity 60 mCi/mmole; 20 microCi/ml, using 5 microliters per assay). The compounds of this invention were added in a DMSO solution at the following concentrations: 100 microM, and 50 microM. In each assay, a DMSO control was used. After 15 min at 30° C., the enzymatic reaction was centrifuged (20,000 g for 1 min), and 70 microliters of the supernatant was added to an activated reverse phase silicic acid column (approximately 0.5 ml of silicic acid). The column was eluted with 2 ml of water, and 0.5 ml of the eluent was used for scintillation counting to determine the amount of C^14 trapped as C^14 bicarbonate ion.

The mark [3] stands for this setting: Table 1, read-out: IC50 (μm), inhibition of mitochondrial fatty acid oxidation using palmitoyl CoA as substrate.
Where [4] appears, read: Table IA, read-out: Effect on Palmitoyl CoA Oxidation (IC50).

The values below come from patent publication US6849632B2, “Heteroaryl alkyl piperazine derivatives” (CV Therapeutics, Inc., priority 2000, dated 2005).

Read-outs that look alike come from different tables or passages of the source.

With `COc1ccccc1OCC(O)CN1CCN(CC(=O)Nc2c(C)cccc2C)CC1` (racemic) [ranolazine, (±)-N-(2,6-dimethylphenyl)-4-[2-hydroxy-3-(2-methoxyphenoxy)-propyl]-1-piperazineacetamide, reference compound], the “percentage of parent drug remaining at the 30 minute time point” value in data set [1] (human liver S-9, 30 minutes at 37 C, average of five experiments) came to 57%.
In the case of `Cc1cccc(C)c1NC(=O)CN1CCN(CC(O)COc2nc3ccccc3s2)CC1` (centres unmarked) [Compound 43, 2-{4-[3-(benzothiazol-2-yloxy)-2-hydroxy-propyl]-piperazin-1-yl}-N-(2,6-dimethylphenyl)acetamide], in data set [2], the “Inhibition of mitochondrial fatty acid oxidation using palmitoyl CoA as substrate - % of Control, 100 μm (%)” value (“Inhibition … (%)” for short) is listed as 21%. The “Liver S9 Stability Factor” value in data set [1] is given as 0.6.
For `Cc1nc2cc(OCC(O)CN3CCN(CC(=O)Nc4c(C)cccc4C)CC3)ccc2s1` (centres unmarked) [Compound 45, N-(2,6-dimethylphenyl)-2-{4-[2-hydroxy-3-(2-methyl-benzothiazol-5-yloxy)-propyl]-piperazin-1-yl}acetamide], the “Inhibition … (%)” value in data set [2] amounted to 87%. For the same molecule, the IC50 in data set [2] (setting [3]) was approximately 20 µM; in data set [2] (setting [4]), 15 µM. The “Liver S9 Stability Factor” value in data set [1] was 0.8.
For `Cc1cccc(C)c1NC(=O)CN1CCN(CC(O)COc2cccc3[nH]c(C(N)=O)cc23)CC1` (centres unmarked) [Compound 46, 4-(3-{4-[(2,6-dimethylphenylcarbamoyl)-methyl]-piperazin-1-yl}-2-hydroxypropoxy)-1H-indole-2-carboxylic acid amide], the “Inhibition … (%)” value in data set [2] is reported as 61%. For the same molecule, the concentration for half-maximal inhibition (IC50) in data set [2] (setting [3]) is approximately 125 µM. Moreover, the “Liver S9 Stability Factor” value in data set [1] worked out at 1.1.
Consider `Cc1cccc(C)c1NC(=O)CN1CCN(CC(O)COc2ccc3ncsc3c2)CC1` (centres unmarked) [Compound 47, 2-{4-[3-(benzothiazol-6-yloxy)2-hydroxy-propyl]-piperazin-1-yl}-N-(2,6-dimethylphenyl)-acetamide], for which, in data set [2], the “Inhibition … (%)” value came out at 70%. In addition, the half-maximal inhibitory concentration (IC50) in data set [2] (setting [3]) was approximately 125 µM. Moreover, the “Liver S9 Stability Factor” value in data set [1] was determined as 1.5.
In the case of `Cc1nc2cc(OCC(O)CN3C(C)CN(CC(=O)Nc4c(C)cccc4C)CC3C)ccc2s1` (stereo not drawn) [Compound 52, N-(2,6-dimethylphenyl)-2-{4-[2-hydroxy-3-(2-methyl-benzothiazol-5-yloxy)-propyl]-3,5-cis dimethyl-piperazine-1-yl}acetamide], the “Inhibition … (%)” value in data set [2] was determined as 95%. For the same molecule, the IC50 was approximately 1 µM in data set [2] (setting [3]) and 0.7 µM in data set [2] (setting [4]). The “Liver S9 Stability Factor” value in data set [1] worked out at 0.5.
In the case of `Cc1cccc(C)c1NC(=O)CN1CCN(CC(O)COc2cnc3ccccc3n2)CC1` (centres unmarked) [Compound 70, N-(2,6-dimethylphenyl)-2-{4-[2-hydroxy-3-(quinoxalin-2-yloxy)-propyl]-piperazin-1-yl}acetamide], the “Liver S9 Stability Factor” value in data set [1] was 0.1.
In the case of `Cc1cccc(C)c1NC(=O)CN1CCN(CC(O)COc2ccnc3ccccc23)CC1` (centres unmarked) [Compound 74, N-(2,6-dimethylphenyl)-2-{4-[2-hydroxy-3-(quinolin-4-yloxy)-propyl]-piperazin-1-yl}acetamide], in data set [2], the “Inhibition … (%)” value was determined as 12%. Moreover, the “Liver S9 Stability Factor” value in data set [1] turned out to be 1.0.
As for `Cc1cccc(C)c1NC(=O)CN1CCN(CC(O)COc2cccc3cnccc23)CC1` (centres unmarked) [Compound 76, N-(2,6-dimethylphenyl)-2-{4-[2-hydroxy-3-(isoquinolin-5-yloxy)-propyl]-piperazin-1-yl}acetamide], the “Inhibition … (%)” value in data set [2] turned out to be 26%. Besides, the “Liver S9 Stability Factor” value in data set [1] is reported as 0.8.
As to `Cc1cccc(C)c1NC(=O)CN1CCN(CC(O)COc2ccc3ncccc3c2)CC1` (centres unmarked) [Compound 78, N-(2,6-dimethylphenyl)-2-{4-[2-hydroxy-3-(quinolin-6-yloxy)-propyl]-piperazin-1-yl}acetamide], the “Inhibition … (%)” value in data set [2] is on record as 42%. For the same molecule, the “Liver S9 Stability Factor” value in data set [1] is given as 0.6.
The matching figures for `Cc1ccc2ccc(OCC(O)CN3CCN(CC(=O)Nc4c(C)cccc4C)CC3)cc2n1` (centres unmarked) [Compound 80, N-(2,6-dimethylphenyl)-2-{4-[2-hydroxy-3-(2-methyl-quinolin-7-yloxy)-propyl]-piperazin-1-yl}acetamide]: 22% and 0.5.
